From patent publication US20060241067A1, “Methods For inhibiting angiogenesis, cell migration, cell adhesion, and cell survival” (priority 2002, published 2006)
Entries after “also recorded” stand apart in the source; their conditions may differ.

Tests used:
[1] = system: Rho; experiment: Rho activity assay (GST-Rhotekin binding domain affinity precipitation); type: cell-based, human; details: cells attached to vitronectin 15 minutes; 250 μM dibutyryl cAMP or transfection
Protocol: (§1) Human umbilical vein endothelial cells (HUVEC) were grown in Endothelial Growth Medium (containing 2% fetal bovine serum, bFGF and VEGF) (Clonetics, San Diego, Calif.). To render HUVECs quiescent for Rac and/or Rho assays, monolayers of endothelial cells were incubated for 18 hrs in Endothelial Basal Medium supplemented with 0.1% serum (Clonetics). Cell migration and adhesion assays on ECM substrates were performed as previously described in Kim et al. (S. Kim et al., Amer. J. Biol. Chem., 275:33920-33928 (2000); and S. Kim et al., Amer. J. Path., 156:1345-1362 (2000)).
(§2) Rho activity was determined by measuring the amount of Rho affinity bound to GST-Rhotekin binding domain (RBD). Levels of active Rho were determined by Western blotting affinity precipitated protein with anti-Rho antibodies while total Rho levels were measured by immunoblotting total cell lysates with anti-Rho. Rac activity was determined by measuring the amount of Rac affinity precipitated by the GST-p21-activated protein binding domain, PBD (Upstate Biotechnology, Syracuse, N.Y.). Levels of active Rac were determined by immunoblotting affinity precipitated protein with anti-Rac antibodies. […] Total Rac levels were measured by immunoblotting total cell lysates with anti-Rac.

[2] = system: Rac; experiment: Rac activity assay (GST-PBD affinity precipitation); type: cell-based, human; details: vitronectin 30 minutes, cAMP, PTHrP or transfection
Protocol: as §1, §2

[3] = system: HUVECS; experiment: Staining of actin filaments and focal contacts (rhodamine phalloidin, anti-vinculin); type: cell-based, human
Protocol: Round […] glass coverslips were coated with 5 μg/ml vitronectin for 1 hour at 37° C., then blocked with 3% bovine serum albumin for 2 hours at 37° C. HUVECS were removed from culture dishes by trypsizination, washed in serum-free culture medium, and resuspended in endothelial basal culture medium. Cells were then incubated for one hour at 37° C. on coated coverslips. Cells were incubated in the presence of 25 μg/ml anti-α5β1, anti-α2β1 or no antibodies for 60 minutes. Alternatively, cells in endothelial growth medium containing VEGF and bFGF but no serum were plated on coverslips for 48 hours and then treated with cAMP or medium. Coverslips were then washed to remove unbound cells, fixed for 5 minutes in 3.7% paraformaldehyde and permeabilized in 0.3% TX-100 for 3 minutes. Coverslips were incubated with 0.2 μg/ml anti-vinculin antibodies or rhodamine phalloidin (20 ng/ml) in 20 mg/ml bovine serum albumin in phosphate buffered saline for one hour at room temperature. Coverslips were well washed in PBS and incubated in 10 μg/ml goat anti-mouse-Alexa 568 (for anti-vinculin) for 1 hour at room temperature. Coverslips were mounted using mounting medium prior to fluorescent microsopy.

[4] = system: chick chorioallantoic membrane (CAM); experiment: Chick chorioallantoic membrane (CAM) angiogenesis assay; type: in vivo, chicken; details: bFGF stimulated CAMs; 250 μM cAMP or 4 μg plasmid
[5] = system: chick chorioallantoic membrane (CAM); experiment: Apoptosis markers in CAM blood vessels in vivo (Annexin V, cleaved caspases, TUNEL, DNA gels); set-up: species or system chicken; details: bFGF-stimulated CAMs
Protocol: CAM assays were performed as described (Kim et al. (2000) Am. J. Path. 156:1345-1362). Saline or bFGF stimulated CAMs were treated for 24 h with 20 μg anti-α5β1, anti-αvβ3 or control antibodies and then injected intravenously with 50 μl Annexin V-FITC. CAMs were harvested after 2 h, then analyzed by confocal microscopy. Alternatively, CAMs treated as above were excised, minced on ice, and treated with 0.1% dispase/0.1% collagenase for 1 h at 37° C. Single cell suspensions were incubated with FITC-Annexin V and analyzed as described above. bFGF stimulated CAMs were also treated with anti-α5β1 or anti-αvβ3 in the presence or absence of 500 μM caspase-3, -8 or -9 inhibitors. bFGF stimulated CAMs were also transfected with 4 μg N1-GFP, dnPKA or PKAcat expression plasmids. Freshly excised CAMs were homogenized in ice cold RIPA buffer containing protease inhibitors and immunoblotted to detect intact and cleaved caspase 3 or 8. For all treatment groups, n=10. CAMs were fixed with 3.7% paraformaldehyde prior to excision. The average number of blood vessel branch points per treatment group+/−SEM is presented. Some excised CAMs were cryopreserved, cut into 5 μm sections, immunostained with anti-cleaved caspase 3, anti-cleaved caspase 8 and anti-VFW antibodies (to detect blood vessels). CAMs were also stained by the TUNEL method to detect fragmented DNA.

[6] = system: HUVECS; experiment: Time lapse videomicroscopy of migrating endothelial cells; type: cell-based, human; details: 500 μM dibutyryl-cAMP, vitronectin
Protocol: 2.5-cm-diameter glass coverslips were coated with 5 μg/ml vitronectin for 1 hour at 37° C., then blocked with 3% bovine serum albumin for 2 hours. HUVECs were removed from culture dishes by trypsizination, and plated on coverslips for 48 hours. Coverslips were then placed on the microscope stage (Zeiss, Oberkochen, Germany) connected to a Charged Coupled Device (CCD) camera and viewed at a 200× magnification in bright field. Cells on the coverslips were kept at 37° C. with 5% CO2, bathed in culture media with 20 mM HEPES (pH7.4). Images were recorded using IP Lab software (Webster, N.Y.) at 1-minute intervals for 60 minutes. Dibutyryl-cAMP was then directly added into the culture medium at concentration of 500 μM. Images of cells were then recorded for an additional 60 minutes at 1-minute intervals. Cell shape and migration distance changes were quantified using IMAQ Vision Builder software (National Instruments Corporation, Austin, Tex.). Cell shape and nuclear positions were measured at 10-minute time points. Ellipse Ratio was used as a parameter for polarity. As cell shape approaches a circle, the Ellipse Ratio approaches the number one. Distance migrated was determined by measuring the distance nuclei moved in ten minute intervals. […] Images were recorded using IP Lab Spectrum software (Webster, N.Y.) at 1-minute intervals for 60 minutes. […]

With `CCCC(=O)Nc1ncnc2c1ncn2[C@@H]1O[C@@H]2COP(=O)(O)O[C@H]2[C@H]1OC(=O)CCC` [dibutyryl cAMP] the “Rho activity (GTP-loading)” value [1] was “stimulates Rho activity (GTP-loading)”, the “Rac activation (RacGTP to total Rac)” value [2] was “blocked” and the “Rac activation (RacGTP to total Rac)” value ([2]; listed as cell permeable cAMP) was “inhibits Rac activation”. The “increase in the number of focal adhesions” value ([3]; cAMP treated versus untreated cells) was 3 fold, the “cell shape, stress fibers and actin remodeling” value ([3]; cAMP treatment or transfection, vitronectin) was “remain round and flat and exhibit neither stress fibers nor cortical actin; also recorded: inhibited actin remodeling and induced a flattened morphology” and the “localization of Rho A” value ([3]; immunolocalization, cAMP treated cells) was “stimulates the translocation of Rho A to the plasma membrane”. The “angiogenesis (blood vessel branch points)” value [4] was “completely suppresses angiogenesis; also recorded: potently inhibits angiogenesis”, the “endothelial cell apoptosis in vivo (TUNEL staining)” value [5] was “induces endothelial cell apoptosis in vivo” and the “cell shape (polarity)” value [6] was “rapidly induces a flattening of the cell shape”. The “endothelial cell migration (distance moved by nuclei)” value [6] was “rapidly inhibits endothelial cell migration”.
